Measurements as given in ChEMBL document CHEMBL5465560, “Selectivity Literature for EUbOPEN Chemogenomic Library” (2024).
Values belong to the molecule of their own block, whether it stands above or below them.

Tests used:
[1] = biological target: Casein kinase I isoform alpha (Homo sapiens, UniProt P48729); assay: Selectivity interaction (ActivX KiNativ screen (kinase selectivity in THP-1 cell lysates)) EUB0000639a CSNK1A1; assay type: subcellular; details: lysate, at 0.01 µM
[2] = biological target: Inactive tyrosine-protein kinase PEAK1 (Homo sapiens) (UniProt Q9H792); assay: Selectivity interaction (Kinase panel (Z-LYTE Assay)) EUB0001632a PEAK1; details: at 10 µM
Inactive tyrosine-protein kinase PEAK1 (Homo sapiens), sequence (Q9H792 whole entry): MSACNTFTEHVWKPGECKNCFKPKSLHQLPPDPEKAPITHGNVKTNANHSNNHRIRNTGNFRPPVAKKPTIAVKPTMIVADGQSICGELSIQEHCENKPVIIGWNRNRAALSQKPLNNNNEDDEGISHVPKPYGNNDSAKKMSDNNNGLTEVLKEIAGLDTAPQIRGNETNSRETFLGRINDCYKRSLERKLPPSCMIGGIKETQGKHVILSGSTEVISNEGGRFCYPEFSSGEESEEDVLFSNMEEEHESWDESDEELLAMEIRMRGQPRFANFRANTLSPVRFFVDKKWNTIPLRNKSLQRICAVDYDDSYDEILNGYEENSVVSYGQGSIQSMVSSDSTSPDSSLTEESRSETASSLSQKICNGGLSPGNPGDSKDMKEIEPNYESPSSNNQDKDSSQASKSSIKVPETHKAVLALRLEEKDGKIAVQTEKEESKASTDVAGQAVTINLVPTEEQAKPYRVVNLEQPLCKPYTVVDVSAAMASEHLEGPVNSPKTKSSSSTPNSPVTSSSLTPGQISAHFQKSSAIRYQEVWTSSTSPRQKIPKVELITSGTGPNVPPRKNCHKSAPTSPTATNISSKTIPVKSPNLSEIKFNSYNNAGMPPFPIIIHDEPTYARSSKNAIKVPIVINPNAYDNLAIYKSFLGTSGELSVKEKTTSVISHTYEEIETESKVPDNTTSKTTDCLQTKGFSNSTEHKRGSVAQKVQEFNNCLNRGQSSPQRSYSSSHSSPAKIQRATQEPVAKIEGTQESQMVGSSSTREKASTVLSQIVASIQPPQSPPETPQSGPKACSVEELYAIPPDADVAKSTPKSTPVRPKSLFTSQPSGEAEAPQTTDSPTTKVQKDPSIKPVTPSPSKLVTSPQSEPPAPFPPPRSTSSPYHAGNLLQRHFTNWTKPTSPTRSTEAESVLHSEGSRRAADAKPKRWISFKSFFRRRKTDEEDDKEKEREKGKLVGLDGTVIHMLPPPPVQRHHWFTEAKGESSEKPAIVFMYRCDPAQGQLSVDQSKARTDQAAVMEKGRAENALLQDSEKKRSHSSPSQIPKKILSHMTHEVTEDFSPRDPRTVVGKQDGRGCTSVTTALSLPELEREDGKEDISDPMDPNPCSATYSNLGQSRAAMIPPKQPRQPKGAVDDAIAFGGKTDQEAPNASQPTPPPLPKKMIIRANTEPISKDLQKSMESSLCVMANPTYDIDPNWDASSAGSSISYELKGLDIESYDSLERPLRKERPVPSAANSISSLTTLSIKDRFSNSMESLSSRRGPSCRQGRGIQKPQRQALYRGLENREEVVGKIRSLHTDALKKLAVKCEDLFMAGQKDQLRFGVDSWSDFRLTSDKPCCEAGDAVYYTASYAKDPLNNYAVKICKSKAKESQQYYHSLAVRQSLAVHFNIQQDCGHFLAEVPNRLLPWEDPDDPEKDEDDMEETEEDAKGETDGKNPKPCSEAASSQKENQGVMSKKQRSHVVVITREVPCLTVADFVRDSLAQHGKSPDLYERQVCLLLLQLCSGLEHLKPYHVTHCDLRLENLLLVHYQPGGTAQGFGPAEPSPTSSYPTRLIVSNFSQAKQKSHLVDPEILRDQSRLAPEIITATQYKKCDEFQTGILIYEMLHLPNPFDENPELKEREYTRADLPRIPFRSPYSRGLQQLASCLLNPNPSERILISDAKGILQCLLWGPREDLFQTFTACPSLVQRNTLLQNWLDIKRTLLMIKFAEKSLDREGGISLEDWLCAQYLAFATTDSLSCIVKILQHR

[3] = biological target: T1, Mitogen-activated protein kinase kinase kinase 7 (Homo sapiens) (UniProt O43318); assay: Selectivity interaction (KinomeScan (DiscoverX)) EUB0000092b MAP3K7; details: at 10 µM
T1 sequence (whole entry): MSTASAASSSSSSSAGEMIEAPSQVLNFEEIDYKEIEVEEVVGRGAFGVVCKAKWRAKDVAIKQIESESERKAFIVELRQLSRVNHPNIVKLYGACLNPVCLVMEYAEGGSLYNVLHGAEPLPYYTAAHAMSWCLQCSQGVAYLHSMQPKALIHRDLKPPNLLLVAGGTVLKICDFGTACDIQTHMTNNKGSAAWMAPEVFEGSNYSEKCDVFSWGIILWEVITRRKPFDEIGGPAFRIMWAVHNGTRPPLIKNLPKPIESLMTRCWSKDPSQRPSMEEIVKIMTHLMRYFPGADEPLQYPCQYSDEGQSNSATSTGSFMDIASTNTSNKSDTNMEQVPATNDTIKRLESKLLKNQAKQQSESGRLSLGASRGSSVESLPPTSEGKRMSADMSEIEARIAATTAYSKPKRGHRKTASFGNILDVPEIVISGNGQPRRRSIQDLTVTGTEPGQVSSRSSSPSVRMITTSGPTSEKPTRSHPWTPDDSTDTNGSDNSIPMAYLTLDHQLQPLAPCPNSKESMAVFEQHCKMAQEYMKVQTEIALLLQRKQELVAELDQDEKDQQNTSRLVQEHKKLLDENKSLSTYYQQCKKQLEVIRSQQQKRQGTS

[4] = biological target: Serine/threonine-protein kinase PLK2 (Homo sapiens, UniProt Q9NYY3); assay: Selectivity interaction (Upstate Kinase Profiler service (Millipore)) EUB0000056c PLK2; details: at 1 µM
Serine/threonine-protein kinase PLK2, sequence (Q9NYY3 whole entry, looked up): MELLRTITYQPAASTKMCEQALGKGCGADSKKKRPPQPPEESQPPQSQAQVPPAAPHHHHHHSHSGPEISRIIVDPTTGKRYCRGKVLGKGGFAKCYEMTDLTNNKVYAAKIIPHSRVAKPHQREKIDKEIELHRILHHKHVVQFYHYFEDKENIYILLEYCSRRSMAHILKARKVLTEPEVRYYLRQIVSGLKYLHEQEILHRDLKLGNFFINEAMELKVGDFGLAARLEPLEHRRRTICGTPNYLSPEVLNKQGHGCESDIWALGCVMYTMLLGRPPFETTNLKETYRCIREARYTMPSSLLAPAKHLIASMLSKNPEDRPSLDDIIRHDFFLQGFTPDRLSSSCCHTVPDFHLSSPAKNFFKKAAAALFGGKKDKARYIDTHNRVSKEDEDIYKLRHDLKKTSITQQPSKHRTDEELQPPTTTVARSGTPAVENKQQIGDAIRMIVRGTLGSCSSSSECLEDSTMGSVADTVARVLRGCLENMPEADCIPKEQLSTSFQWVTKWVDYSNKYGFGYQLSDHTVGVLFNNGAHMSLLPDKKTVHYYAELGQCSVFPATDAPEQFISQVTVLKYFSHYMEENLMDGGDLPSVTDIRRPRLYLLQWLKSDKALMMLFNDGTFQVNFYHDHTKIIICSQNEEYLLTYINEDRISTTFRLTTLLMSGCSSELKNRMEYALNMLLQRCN

[5] = biological target: Serine/threonine-protein kinase MARK2 (Homo sapiens) (UniProt Q7KZI7); assay: Selectivity interaction (KinomeScan (DiscoverX)) EUB0000045b MARK2
Serine/threonine-protein kinase MARK2 (Homo sapiens), sequence (Q7KZI7 whole entry): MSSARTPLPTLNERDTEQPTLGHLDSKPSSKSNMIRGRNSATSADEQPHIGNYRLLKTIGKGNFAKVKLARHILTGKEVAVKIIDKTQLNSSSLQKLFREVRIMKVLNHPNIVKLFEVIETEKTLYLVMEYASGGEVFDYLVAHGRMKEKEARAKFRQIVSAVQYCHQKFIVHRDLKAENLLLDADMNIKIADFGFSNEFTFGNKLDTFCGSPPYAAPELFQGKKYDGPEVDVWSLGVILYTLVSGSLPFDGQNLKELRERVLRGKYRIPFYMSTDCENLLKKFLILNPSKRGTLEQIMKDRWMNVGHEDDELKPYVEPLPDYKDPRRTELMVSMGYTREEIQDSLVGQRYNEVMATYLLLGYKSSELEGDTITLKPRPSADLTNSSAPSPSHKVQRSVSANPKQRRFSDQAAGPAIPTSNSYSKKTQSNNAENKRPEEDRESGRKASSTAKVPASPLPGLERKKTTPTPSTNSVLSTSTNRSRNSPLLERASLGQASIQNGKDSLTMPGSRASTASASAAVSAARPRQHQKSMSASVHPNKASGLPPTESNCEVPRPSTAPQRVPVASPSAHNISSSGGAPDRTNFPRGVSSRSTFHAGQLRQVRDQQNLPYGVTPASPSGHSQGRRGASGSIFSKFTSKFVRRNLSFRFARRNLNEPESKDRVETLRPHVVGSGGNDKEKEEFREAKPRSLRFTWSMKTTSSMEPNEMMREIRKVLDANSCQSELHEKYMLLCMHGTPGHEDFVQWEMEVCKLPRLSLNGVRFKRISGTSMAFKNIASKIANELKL

[6] = biological target: T2, Serine/threonine-protein kinase 36 (Homo sapiens) (UniProt Q9NRP7); assay: Selectivity interaction (KinomeScan (DiscoverX)) EUB0000618a STK36; details: at 10 µM
T2 sequence (whole entry): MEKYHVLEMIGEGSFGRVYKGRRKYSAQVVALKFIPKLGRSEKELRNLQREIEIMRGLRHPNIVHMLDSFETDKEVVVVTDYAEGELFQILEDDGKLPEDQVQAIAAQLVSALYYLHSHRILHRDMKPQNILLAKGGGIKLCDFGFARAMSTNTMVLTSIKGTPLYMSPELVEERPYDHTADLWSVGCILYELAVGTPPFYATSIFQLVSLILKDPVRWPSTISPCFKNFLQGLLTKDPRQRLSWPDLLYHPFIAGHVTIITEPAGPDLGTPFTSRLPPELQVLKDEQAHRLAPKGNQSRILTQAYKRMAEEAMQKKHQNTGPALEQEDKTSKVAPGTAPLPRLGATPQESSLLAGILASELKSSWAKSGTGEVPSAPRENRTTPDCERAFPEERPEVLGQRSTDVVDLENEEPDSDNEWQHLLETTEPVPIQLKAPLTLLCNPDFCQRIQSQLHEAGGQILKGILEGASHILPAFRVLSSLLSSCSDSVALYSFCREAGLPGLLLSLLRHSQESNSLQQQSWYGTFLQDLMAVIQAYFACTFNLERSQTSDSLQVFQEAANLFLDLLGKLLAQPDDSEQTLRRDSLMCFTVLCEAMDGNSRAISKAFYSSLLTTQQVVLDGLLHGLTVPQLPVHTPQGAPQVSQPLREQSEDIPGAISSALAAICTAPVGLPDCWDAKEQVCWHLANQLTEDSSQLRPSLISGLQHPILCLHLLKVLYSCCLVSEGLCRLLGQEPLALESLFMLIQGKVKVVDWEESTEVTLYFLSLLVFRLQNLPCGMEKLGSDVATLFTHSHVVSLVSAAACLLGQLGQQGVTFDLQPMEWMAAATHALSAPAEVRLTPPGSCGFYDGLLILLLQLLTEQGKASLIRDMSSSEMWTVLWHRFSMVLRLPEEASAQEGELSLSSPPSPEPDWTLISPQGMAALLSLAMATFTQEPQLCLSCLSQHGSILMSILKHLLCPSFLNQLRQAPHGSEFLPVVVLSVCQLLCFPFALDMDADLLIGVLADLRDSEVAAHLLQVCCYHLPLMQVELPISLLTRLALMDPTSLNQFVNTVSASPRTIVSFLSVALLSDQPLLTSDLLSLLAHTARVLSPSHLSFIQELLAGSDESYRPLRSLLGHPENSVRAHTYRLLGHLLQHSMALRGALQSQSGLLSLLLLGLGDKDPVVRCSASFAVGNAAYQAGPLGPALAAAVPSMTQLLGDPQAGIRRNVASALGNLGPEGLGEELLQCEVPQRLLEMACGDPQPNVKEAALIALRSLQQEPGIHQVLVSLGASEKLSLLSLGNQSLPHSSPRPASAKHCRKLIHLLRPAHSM

[7] = biological target: T3, Serine/threonine-protein kinase DCLK1 (Homo sapiens) (UniProt O15075); assay: Selectivity interaction (Kinase panel (DSF assay)) EUB0001559a DCLK1
T3 sequence (whole entry): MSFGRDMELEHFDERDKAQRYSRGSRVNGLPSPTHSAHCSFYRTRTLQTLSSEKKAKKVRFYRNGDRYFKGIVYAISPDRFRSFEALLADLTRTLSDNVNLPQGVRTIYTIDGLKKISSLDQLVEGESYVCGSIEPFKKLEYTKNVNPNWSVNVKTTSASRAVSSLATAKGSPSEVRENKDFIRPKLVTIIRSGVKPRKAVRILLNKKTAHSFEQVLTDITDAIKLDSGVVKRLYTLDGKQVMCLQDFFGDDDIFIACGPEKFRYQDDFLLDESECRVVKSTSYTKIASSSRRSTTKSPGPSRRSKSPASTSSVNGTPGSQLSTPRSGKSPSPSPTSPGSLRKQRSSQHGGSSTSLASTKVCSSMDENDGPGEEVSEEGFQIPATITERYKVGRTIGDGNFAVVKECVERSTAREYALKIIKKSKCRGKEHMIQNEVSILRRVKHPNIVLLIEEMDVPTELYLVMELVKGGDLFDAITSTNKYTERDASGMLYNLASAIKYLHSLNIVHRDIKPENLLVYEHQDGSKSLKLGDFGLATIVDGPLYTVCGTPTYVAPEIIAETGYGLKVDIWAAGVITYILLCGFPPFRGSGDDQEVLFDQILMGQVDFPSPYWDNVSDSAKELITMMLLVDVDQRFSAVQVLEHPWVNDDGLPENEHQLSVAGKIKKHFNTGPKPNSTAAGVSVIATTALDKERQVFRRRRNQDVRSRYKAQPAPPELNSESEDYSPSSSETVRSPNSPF

Casein kinase I isoform alpha, sequence (P48729 2-337 limits assumed): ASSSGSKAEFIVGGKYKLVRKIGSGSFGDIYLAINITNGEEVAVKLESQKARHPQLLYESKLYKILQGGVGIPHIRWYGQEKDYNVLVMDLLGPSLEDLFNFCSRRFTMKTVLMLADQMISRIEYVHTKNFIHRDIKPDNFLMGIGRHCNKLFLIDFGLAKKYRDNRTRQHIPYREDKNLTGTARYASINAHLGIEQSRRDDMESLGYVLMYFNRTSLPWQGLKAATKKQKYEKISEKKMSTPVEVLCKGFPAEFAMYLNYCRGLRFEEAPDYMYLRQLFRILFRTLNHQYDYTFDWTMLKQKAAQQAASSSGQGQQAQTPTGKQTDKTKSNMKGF

% of inhibition [1]: 2.1%
Compound: CC[C@@H]1[C@H](F)C(=O)N[C@@H]1COc1nccc2cc(C(N)=O)c(OC)cc12 [ZIMLOVISERTIB]

% of control [2]: 11.7%
Compound: Cn1cc(-n2cnc3c(NCc4nc5cc(Cl)c(Cl)cc5[nH]4)nc(N4CCOCC4)nc32)cn1

Compound: CCC(=O)N1CCN(c2ccc(-n3c(=O)ccc4cnc5ccc(-c6cnc7ccccc7c6)cc5c43)cc2C(F)(F)F)CC1
% of control [3]: 47%

% of inhibition [4]: -19%
Compound: Cc1ccc(-c2ccc3c(ccc4sc5c(c43)NC[C@@H](C)NC5=O)n2)cn1

Compound: C=CC(=O)Nc1cc(-n2c(=O)ccc3cnc4ccc(-c5ccc(NS(C)(=O)=O)cc5)cc4c32)ccc1C
% of control ([5]; at 1 µM): 94%
% of control ([5]; at 10 µM): 100%

Compound: O[C@H]1CC[C@H](Nc2ncc3nc(Nc4c(F)cc(F)cc4F)n([C@H]4CCOC4)c3n2)CC1
% of control [6]: 6.5%

dTM [7]: -0.6 K
Compound: CN(C(=O)c1cnn2cccnc12)c1cc2c(cc1N1CCOCC1)C(=O)N(C[C@@H](F)C(C)(C)O)C2
